Measured values as given in ChEMBL document CHEMBL1133581, “Synthesis and in vitro and in vivo functional studies of ortho-substituted phenylpiperazine and N-substituted 4-N-(o-methoxyphenyl)aminopiperidine analogues of WAY100635” (J Med Chem, 2000).

Tests used:
[1] = biological target: T1, 5-hydroxytryptamine receptor 1A (Rattus norvegicus, UniProt P19327); test: biochemical
T1 sequence (P19327 whole entry): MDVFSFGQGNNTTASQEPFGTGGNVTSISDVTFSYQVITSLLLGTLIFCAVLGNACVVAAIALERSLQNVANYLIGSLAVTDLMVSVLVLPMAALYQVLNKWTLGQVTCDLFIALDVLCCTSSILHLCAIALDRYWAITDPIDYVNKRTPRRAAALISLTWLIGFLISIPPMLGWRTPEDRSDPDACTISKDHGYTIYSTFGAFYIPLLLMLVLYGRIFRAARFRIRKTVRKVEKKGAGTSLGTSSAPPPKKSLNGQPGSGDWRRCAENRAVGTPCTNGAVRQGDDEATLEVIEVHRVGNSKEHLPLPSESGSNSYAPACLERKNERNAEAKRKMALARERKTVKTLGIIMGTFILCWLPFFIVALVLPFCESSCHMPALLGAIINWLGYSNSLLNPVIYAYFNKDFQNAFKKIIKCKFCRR
Description: In vitro affinity against 5-hydroxytryptamine 1A receptor using [3H]-8-OH-DPAT in rat hippocampus

[2] = organism: Cavia porcellus; test: tissue or blood; details: Ileum, read-out: pA2 (converted)
Description: Ability to antagonize the 8-OH-DPAT-induced contractions of a strip of guinea pig ileum tissue

[3] = organism: Rattus norvegicus
[4] = organism: Rattus norvegicus; remark: listed apart in the source
Description: Ability to counteract the 8-OH-DPAT (1 mg/kg sc)-induced Hypothermia in rats (n=4) and evaluated for the decrease in body temperature (degrees Celsius) at 10(micro mol/kg)

[5] = organism: Rattus norvegicus; remark: listed apart in the source
Description: Ability to counteract the 8-OH-DPAT (1 mg/kg sc)-induced Hypothermia in rats (n=4) and evaluated for the decrease in body temperature (degrees Celsius) at 0.1(micro mol/kg)

[6] = organism: Rattus norvegicus; remark: listed apart in the source
Description: Ability to counteract the 8-OH-DPAT (1 mg/kg sc)-induced Hypothermia in rats (n=4) and evaluated for the decrease in body temperature (degrees Celsius) at 1.0(micro mol/kg)

Row | SMILES | IC50 [1] [nM] | Kb [2] [nM] | Vocalization time [3] [s] | Decrease [4] [°C] | Decrease [5] [°C] | Decrease [6] [°C]
1 | COc1ccccc1N(C)C1CCN(CCN(C(=O)C2CCCCC2)c2ccccn2)CC1 | 1290 |  |  |  |  | 
2 | O=C(C1CCCCC1)N(CCN1CCN(c2ccccc2OS(=O)(=O)C(F)(F)F)CC1)c1ccccn1 | 36 | 20 | 146 | 0.3 | 1.5 | 0
3 | O=C(C1CCCCC1)N(CCN1CCN(c2ccccc2O)CC1)c1ccccn1 | 2.1 | 10 | 166 | 0.3 | 0.6 | 0.2
4 | O=C(C1CCCCC1)N(CCN1CCN(c2ccccc2OCCF)CC1)c1ccccn1 | 1.55 | 3.16 | 164 | 0.4 | 1.8 | 1.1
5 | O=C(C1CCCCC1)N(CCN1CCN(c2ccccc2OCCCF)CC1)c1ccccn1 | 6.05 | 5.01 | 171 | 0.5 | 2.4 | 0.6
6 | CS(=O)(=O)Oc1ccccc1N1CCN(CCN(C(=O)C2CCCCC2)c2ccccn2)CC1 | 7.25 | 2.51 | 167 | 0.4 | 1.1 | 0.5
7 | CCCN(CCC)C1CCc2cccc(O)c2C1 (stereo not drawn) [8-OH-DPAT] |  |  | 4.9 |  | 2 | 
